SMILES strings stand for the structures.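 Protocol summary: plate cells (96-well), add compound at 5 concentrations, incubate 48 h, interpolate endpoints linearly. Here, GI50 denotes the concentration required for 50% inhibition of growth. TGI: concentration producing complete growth inhibition.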

Consider 12 compounds from PubChem BioAssay (NCI).

Some test systems named below: SK-MEL-28 melanoma; UACC-62 melanoma; OVCAR-3 ovarian; OVCAR-8 ovarian; EKVX NSCLC; SK-MEL-5 melanoma; SF-268 CNS; MOLT-4 leukemia; SF-539 CNS; RXF 393 renal.
Holding throughout (assay): DTP human tumour cell line panel, 48 h

As usually defined, the GI50 is the concentration that inhibits growth by half. By TGI is commonly meant the concentration at which net growth stops. The low end stands for more potent growth arrest, the high end for less potent growth arrest. `COc1ccc2c(c1)N(CCO)C1=C(C(=O)OC1)C2c1ccc(OC)c(OC)c1` (stereo not drawn): the GI50 was 3.33 µM with SK-MEL-28 melanoma; 2.13 µM in the experiment on UACC-62 melanoma; 1.92 µM in the experiment with OVCAR-3 ovarian; 3.34 µM in the experiment with OVCAR-8 ovarian; 6.52 µM in the experiment with EKVX NSCLC; 2.63 µM in the experiment with SK-MEL-5 melanoma. Moreover, the GI50 in the experiment on SF-268 CNS is 4.5 µM; with MOLT-4 leukemia, 4.75 µM. In addition, the TGI is above 100 µM in the experiment on SK-MEL-28 melanoma; above 100 µM in the experiment on UACC-62 melanoma; 4.24 µM in the experiment on OVCAR-3 ovarian; above 100 µM in the experiment on OVCAR-8 ovarian; above 100 µM in the experiment with EKVX NSCLC; 15.5 µM with SK-MEL-5 melanoma. In addition, the TGI with SF-268 CNS and with MOLT-4 leukemia was above 100 µM each time.

With `N#Cc1cn(-c2c3ccccc3nc3ccccc23)c(=O)[nH]c1=O`, the TGI in the experiment on SK-MEL-28 melanoma came to 31.4 µM; in the experiment on UACC-62 melanoma it was 38.8 µM; in the experiment on OVCAR-3 ovarian, 35.6 µM; in the experiment on SF-539 CNS, 7.71 µM; with OVCAR-8 ovarian, 27.6 µM; in the experiment on EKVX NSCLC, 38.1 µM. The TGI with SF-268 CNS stood at 29.7 µM; in the experiment on MOLT-4 leukemia, 22.6 µM.

Turning to `Cc1cc2c(cc1Cl)N1C(=O)NS(=O)(=O)N=C1NS2(=O)=O`, the GI50 in the experiment with SK-MEL-28 melanoma, with UACC-62 melanoma, in the experiment on OVCAR-3 ovarian, with SF-539 CNS, in the experiment on OVCAR-8 ovarian and in the experiment with EKVX NSCLC was above 100 µM each time. The GI50 in the experiment on SK-MEL-5 melanoma, in the experiment on SF-268 CNS and in the experiment with MOLT-4 leukemia was above 100 µM each time. Besides, the TGI in the experiment on SK-MEL-28 melanoma, with UACC-62 melanoma, in the experiment on OVCAR-3 ovarian, in the experiment on SF-539 CNS, with OVCAR-8 ovarian and with EKVX NSCLC was above 100 µM each time. Moreover, the TGI in the experiment on SK-MEL-5 melanoma, with SF-268 CNS and in the experiment on MOLT-4 leukemia was above 100 µM each time.

Regarding `O=C(O)COc1ccc(C(=O)/C(SS/C(C(=O)c2ccc(OCC(=O)O)c(Cl)c2Cl)=C2\C=C(c3ccccc3Cl)SS2)=C2/C=C(c3ccccc3Cl)SS2)c(Cl)c1Cl`, the TGI was above 100 µM in the experiment on SK-MEL-28 melanoma; 69.5 µM with UACC-62 melanoma; 53 µM in the experiment with OVCAR-3 ovarian; 17.2 µM in the experiment with SF-539 CNS; above 100 µM with OVCAR-8 ovarian; above 89.3 µM in the experiment on EKVX NSCLC. The figures for the TGI in the experiment on SK-MEL-5 melanoma, in the experiment on SF-268 CNS and with MOLT-4 leukemia were 49 µM, above 88.3 µM and 53.6 µM, respectively.

As for `CCCCCCSc1nc(COC(=O)NC)c(COC(=O)NC)n1C`, the TGI in the experiment with SK-MEL-28 melanoma, with UACC-62 melanoma, with OVCAR-3 ovarian, in the experiment with SF-539 CNS, with OVCAR-8 ovarian and in the experiment on EKVX NSCLC was above 100 µM throughout. Moreover, the TGI in the experiment with SK-MEL-5 melanoma, in the experiment with SF-268 CNS and with MOLT-4 leukemia was above 100 µM throughout.

Regarding `Cc1ccc2nc3c(C)cc(=O)cc-3sc2c1`, the total growth inhibition concentration (TGI) with SK-MEL-28 melanoma was 73 µM; in the experiment with UACC-62 melanoma it was 29 µM; in the experiment on OVCAR-3 ovarian, 55.2 µM; in the experiment on SF-539 CNS, 42.6 µM; with OVCAR-8 ovarian, above 100 µM; with EKVX NSCLC, 66.4 µM. The TGI in the experiment with SK-MEL-5 melanoma was 29 µM; in the experiment on SF-268 CNS it was above 100 µM; with MOLT-4 leukemia it was 38.9 µM.

In the case of `Cc1c(O)c(Br)c(C)c(O)c1Br` (tested in a mixture with another compound), the TGI with SK-MEL-28 melanoma stood at 3.56 µM; with UACC-62 melanoma, 10.8 µM; in the experiment on SF-539 CNS, 10 µM; in the experiment on SK-MEL-5 melanoma, 11.4 µM; in the experiment with SF-268 CNS, 8.45 µM; with MOLT-4 leukemia it was 3.09 µM. The same compound displayed a TGI with RXF 393 renal of 3.33 µM.

On to `CC1(C)OC(=O)C(=Cc2ccc([N+](=O)[O-])s2)C(=O)O1`, for which the TGI was determined as 34.6 µM with SK-MEL-28 melanoma; 23.2 µM with OVCAR-3 ovarian; 29.4 µM in the experiment with SF-539 CNS; 31.3 µM in the experiment with OVCAR-8 ovarian; 31.8 µM in the experiment with EKVX NSCLC; 30 µM in the experiment on SK-MEL-5 melanoma. Besides, the TGI in the experiment with SF-268 CNS came to 29.5 µM; in the experiment with MOLT-4 leukemia, 24.6 µM.

Consider `O=C1CC[C@@H](NC(=O)Cc2ccccc2)C(=O)N1`, for which the TGI in the experiment with SK-MEL-28 melanoma, with UACC-62 melanoma, in the experiment with OVCAR-3 ovarian, with SF-539 CNS, in the experiment with OVCAR-8 ovarian and in the experiment on EKVX NSCLC was above 100 µM throughout. Besides, the TGI in the experiment with SK-MEL-5 melanoma, with SF-268 CNS and in the experiment with MOLT-4 leukemia was above 100 µM throughout.

For `Cc1cc2c(cc1Cl)SC(C(=O)c1ccc(Cl)c(Cl)c1)NS2(=O)=O` (stereo not drawn), the GI50 is 30.4 µM with SK-MEL-28 melanoma; 22 µM in the experiment with UACC-62 melanoma; 40.7 µM with OVCAR-3 ovarian; 19.8 µM in the experiment on SF-539 CNS; 44.5 µM with OVCAR-8 ovarian; 37.5 µM in the experiment with EKVX NSCLC. Besides, the GI50 is 42.3 µM in the experiment with SK-MEL-5 melanoma, 33.6 µM in the experiment on SF-268 CNS and 29.5 µM in the experiment with MOLT-4 leukemia. For the same compound, the TGI in the experiment with SK-MEL-28 melanoma is 88.9 µM; with UACC-62 melanoma, 42.9 µM; with OVCAR-3 ovarian, above 100 µM; in the experiment with SF-539 CNS it was 42.2 µM; with OVCAR-8 ovarian, above 100 µM; with EKVX NSCLC, above 100 µM. Besides, the values for the TGI with SK-MEL-5 melanoma, in the experiment with SF-268 CNS and in the experiment on MOLT-4 leukemia were above 100 µM, 88.6 µM and 64.4 µM, respectively.

With `N=C1C(c2nc3ccccc3s2)=C(O)CN1c1cc(Cl)cc(Cl)c1`, the GI50 in the experiment with SK-MEL-28 melanoma was above 100 µM; with UACC-62 melanoma, above 100 µM; in the experiment with OVCAR-3 ovarian, 88.2 µM; in the experiment on SF-539 CNS it was 34.3 µM; in the experiment on OVCAR-8 ovarian, above 100 µM; in the experiment on EKVX NSCLC it was above 100 µM. Besides, the GI50 in the experiment with SK-MEL-5 melanoma is above 100 µM; with SF-268 CNS, 32.3 µM; with MOLT-4 leukemia it was above 100 µM. For the same compound, the TGI with SK-MEL-28 melanoma, in the experiment with UACC-62 melanoma, in the experiment on OVCAR-3 ovarian, in the experiment on SF-539 CNS, in the experiment on OVCAR-8 ovarian and in the experiment on EKVX NSCLC was above 100 µM in each case. Besides, the TGI in the experiment with SK-MEL-5 melanoma, with SF-268 CNS and in the experiment with MOLT-4 leukemia was above 100 µM each time.

As to `COc1cc2c(cc1O)C1CC(CC3CCCCN31)OC(=O)/C=C\c1ccc(O)c-2c1` (stereo not drawn), the TGI in the experiment with SK-MEL-28 melanoma is 85.2 µM; with UACC-62 melanoma, 45.2 µM; in the experiment with OVCAR-3 ovarian, 62 µM; in the experiment with SF-539 CNS it was 34.6 µM; with OVCAR-8 ovarian, 54.2 µM; in the experiment on EKVX NSCLC it was above 100 µM. For the same compound, the TGI was determined as 31.4 µM in the experiment on SK-MEL-5 melanoma, 72.3 µM with SF-268 CNS and 60.2 µM in the experiment on MOLT-4 leukemia.
